Results from ChEMBL document CHEMBL3112480, “γ-Alkylidene-γ-lactones and isobutylpyrrol-2(5H)-ones analogues to rubrolides as inhibitors of biofilm formation by gram-positive and gram-negative bacteria” (Bioorg Med Chem Lett, 2014).
In brackets after ≈: the same amount, converted by molar mass.

Columns and labels:
Staphylococcus aureus [1] = assay: Antibacterial activity against Staphylococcus aureus ATCC 25923 assessed as effect on planktonic growth at 5.5 ug/ml after 20 hrs relative to control; assay type: functional
Staphylococcus aureus [2] = assay: Antibacterial activity against Staphylococcus aureus ATCC 25923 assessed as effect on planktonic growth at 0.34 ug/ml after 20 hrs relative to control; assay type: functional
Pseudomonas aeruginosa [3] = assay: Antibacterial activity against Pseudomonas aeruginosa ATCC 27853 assessed as effect on planktonic growth at 10.9 ug/ml after 20 hrs relative to control; assay type: functional
Pseudomonas aeruginosa [4] = assay: Antibacterial activity against Pseudomonas aeruginosa ATCC 27853 assessed as effect on planktonic growth at 0.34 ug/ml after 20 hrs relative to control; assay type: functional
Pseudomonas aeruginosa [5] = assay: Antibacterial activity against Pseudomonas aeruginosa ATCC 27853 assessed as effect on planktonic growth at 87.5 ug/ml after 20 hrs relative to control; assay type: functional
Staphylococcus aureus [6] = assay: Antibacterial activity against Staphylococcus aureus ATCC 25923 assessed as effect on planktonic growth at 21.9 ug/ml after 20 hrs relative to control; assay type: functional
Streptococcus mutans [7] = assay: Antibacterial activity against Streptococcus mutans ATCC 25175 assessed as effect on planktonic growth at 0.68 ug/ml after 20 hrs relative to control; assay type: functional
[8] = test system: Staphylococcus epidermidis; assay: Antibacterial activity against Staphylococcus epidermidis ATCC 35547 assessed as effect on planktonic growth at 0.17 ug/ml after 20 hrs relative to control; assay type: functional
[9] = test system: Staphylococcus epidermidis; assay: Antibacterial activity against Staphylococcus epidermidis ATCC 35547 assessed as effect on planktonic growth at 43.8 ug/ml after 20 hrs relative to control; assay type: functional
[10] = test system: Staphylococcus epidermidis; assay: Antibacterial activity against Staphylococcus epidermidis ATCC 35547 assessed as effect on planktonic growth at 87.5 ug/ml after 20 hrs relative to control; assay type: functional
Pseudomonas aeruginosa [11] = assay: Antibacterial activity against Pseudomonas aeruginosa ATCC 27853 assessed as effect on planktonic growth at 1.37 ug/ml after 20 hrs relative to control; assay type: functional
Staphylococcus aureus [12] = assay: Antibacterial activity against Staphylococcus aureus ATCC 25923 assessed as effect on planktonic growth at 0.17 ug/ml after 20 hrs relative to control; assay type: functional
[13] = test system: Staphylococcus epidermidis; assay: Antibacterial activity against Staphylococcus epidermidis ATCC 35547 assessed as inhibition of biofilm formation after 20 hrs by crystal-violet staining method; assay type: functional, organism-based
[14] = test system: Staphylococcus epidermidis; assay: Induction of biofilm formation in Staphylococcus epidermidis ATCC 35547 at 87.5 ug/ml after 20 hrs by crystal-violet staining method relative to control; assay type: organism-based
Pseudomonas aeruginosa [15] = assay: Antibacterial activity against Pseudomonas aeruginosa ATCC 27853 assessed as inhibition of biofilm formation after 20 hrs by crystal-violet staining method; assay type: functional, organism-based; details: for IC50: ATCC 27853, 20 h
Staphylococcus aureus [16] = assay: Antibacterial activity against Staphylococcus aureus ATCC 25923 assessed as effect on planktonic growth at 87.5 ug/ml after 20 hrs relative to control; assay type: functional
Staphylococcus aureus [17] = assay: Antibacterial activity against Staphylococcus aureus ATCC 25923 assessed as effect on planktonic growth at 10.9 ug/ml after 20 hrs relative to control; assay type: functional
Streptococcus mutans [18] = assay: Antibacterial activity against Streptococcus mutans ATCC 25175 assessed as effect on planktonic growth at 2.73 ug/ml after 20 hrs relative to control; assay type: functional
Streptococcus mutans [19] = assay: Antibacterial activity against Streptococcus mutans ATCC 25175 assessed as effect on planktonic growth at 0.34 ug/ml after 20 hrs relative to control; assay type: functional
Streptococcus mutans [20] = assay: Antibacterial activity against Streptococcus mutans ATCC 25175 assessed as effect on planktonic growth at 87.5 ug/ml after 20 hrs relative to control; assay type: functional
Pseudomonas aeruginosa [21] = assay: Antibacterial activity against Pseudomonas aeruginosa ATCC 27853 assessed as effect on planktonic growth at 43.8 ug/ml after 20 hrs relative to control; assay type: functional
Streptococcus mutans [22] = assay: Antibacterial activity against Streptococcus mutans ATCC 25175 assessed as effect on planktonic growth at 5.5 ug/ml after 20 hrs relative to control; assay type: functional
Pseudomonas aeruginosa [23] = assay: Antibacterial activity against Pseudomonas aeruginosa ATCC 27853 assessed as effect on planktonic growth at 2.73 ug/ml after 20 hrs relative to control; assay type: functional
Pseudomonas aeruginosa [24] = assay: Antibacterial activity against Pseudomonas aeruginosa ATCC 27853 assessed as effect on planktonic growth at 5.5 ug/ml after 20 hrs relative to control; assay type: functional
Streptococcus mutans [25] = assay: Antibacterial activity against Streptococcus mutans ATCC 25175 assessed as effect on planktonic growth at 43.8 ug/ml after 20 hrs relative to control; assay type: functional
[26] = test system: Staphylococcus epidermidis; assay: Antibacterial activity against Staphylococcus epidermidis ATCC 35547 assessed as effect on planktonic growth at 10.9 ug/ml after 20 hrs relative to control; assay type: functional
[27] = test system: Staphylococcus epidermidis; assay: Antibacterial activity against Staphylococcus epidermidis ATCC 35547 assessed as effect on planktonic growth at 0.34 ug/ml after 20 hrs relative to control; assay type: functional
Streptococcus mutans [28] = assay: Antibacterial activity against Streptococcus mutans ATCC 25175 assessed as effect on planktonic growth at 10.9 ug/ml after 20 hrs relative to control; assay type: functional
Streptococcus mutans [29] = assay: Antibacterial activity against Streptococcus mutans ATCC 25175 assessed as effect on planktonic growth at 0.17 ug/ml after 20 hrs relative to control; assay type: functional
[30] = test system: Staphylococcus epidermidis; assay: Antibacterial activity against Staphylococcus epidermidis ATCC 35547 assessed as effect on planktonic growth at 0.68 ug/ml after 20 hrs relative to control; assay type: functional
Streptococcus mutans [31] = assay: Antibacterial activity against Streptococcus mutans ATCC 25175 assessed as effect on planktonic growth at 21.9 ug/ml after 20 hrs relative to control; assay type: functional
Streptococcus mutans [32] = assay: Antibacterial activity against Streptococcus mutans ATCC 25175 assessed as effect on planktonic growth at 1.37 ug/ml after 20 hrs relative to control; assay type: functional
Pseudomonas aeruginosa [33] = assay: Antibacterial activity against Pseudomonas aeruginosa ATCC 27853 assessed as effect on planktonic growth at 21.9 ug/ml after 20 hrs relative to control; assay type: functional
[34] = test system: Staphylococcus epidermidis; assay: Antibacterial activity against Staphylococcus epidermidis ATCC 35547 assessed as effect on planktonic growth at 1.37 ug/ml after 20 hrs relative to control; assay type: functional
Pseudomonas aeruginosa [35] = assay: Antibacterial activity against Pseudomonas aeruginosa ATCC 27853 assessed as effect on planktonic growth at 0.17 ug/ml after 20 hrs relative to control; assay type: functional
[36] = test system: Staphylococcus epidermidis; assay: Antibacterial activity against Staphylococcus epidermidis ATCC 35547 assessed as effect on planktonic growth at 21.9 ug/ml after 20 hrs relative to control; assay type: functional
Staphylococcus aureus [37] = assay: Antibacterial activity against Staphylococcus aureus ATCC 25923 assessed as effect on planktonic growth at 0.68 ug/ml after 20 hrs relative to control; assay type: functional
Staphylococcus aureus [38] = assay: Antibacterial activity against Staphylococcus aureus ATCC 25923 assessed as effect on planktonic growth at 1.37 ug/ml after 20 hrs relative to control; assay type: functional
[39] = test system: Staphylococcus epidermidis; assay: Antibacterial activity against Staphylococcus epidermidis ATCC 35547 assessed as effect on planktonic growth at 5.5 ug/ml after 20 hrs relative to control; assay type: functional
[40] = test system: Staphylococcus epidermidis; assay: Antibacterial activity against Staphylococcus epidermidis ATCC 35547 assessed as effect on planktonic growth at 2.73 ug/ml after 20 hrs relative to control; assay type: functional
Pseudomonas aeruginosa [41] = assay: Antibacterial activity against Pseudomonas aeruginosa ATCC 27853 assessed as effect on planktonic growth at 0.68 ug/ml after 20 hrs relative to control; assay type: functional
Staphylococcus aureus [42] = assay: Antibacterial activity against Staphylococcus aureus ATCC 25923 assessed as effect on planktonic growth at 43.8 ug/ml after 20 hrs relative to control; assay type: functional
Staphylococcus aureus [43] = assay: Antibacterial activity against Staphylococcus aureus ATCC 25923 assessed as effect on planktonic growth at 2.73 ug/ml after 20 hrs relative to control; assay type: functional
Staphylococcus aureus [44] = assay: Antibacterial activity against Staphylococcus aureus ATCC 25923 assessed as inhibition of biofilm formation at 44 ug/ml after 20 hrs by crystal-violet staining method relative to control; assay type: functional; details: ATCC 25923, 20 h
Staphylococcus aureus [45] = assay: Antibacterial activity against Staphylococcus aureus ATCC 25923 assessed as inhibition of biofilm formation after 20 hrs by crystal-violet staining method; assay type: functional, organism-based; details: ATCC 25923, 20 h

Structure (SMILES): COc1ccccc1C1=C(Br)C(=O)N(CC(C)C)C1(O)Cc1ccc(C(F)(F)F)cc1 (stereo not given)
- Activity (Staphylococcus aureus [1]): -4.1%
- Activity (Staphylococcus aureus [2]): -2.8%
- Activity (Pseudomonas aeruginosa [3]): -16.2%
- Activity (Pseudomonas aeruginosa [4]): 3.7%
- Activity (Pseudomonas aeruginosa [5]): -10.8%
- Activity (Staphylococcus aureus [6]): -17%
- Activity (Streptococcus mutans [7]): 10.9%
- Activity [8]: 6.3%
- Activity [9]: 16.3%
- Activity [10]: 0.5%
- Activity (Pseudomonas aeruginosa [11]): -19.3%
- Activity (Staphylococcus aureus [12]): -4.8%
- inhibition [13]: Dose-dependent effect
- Activity [14]: 143.6%
- inhibition (Pseudomonas aeruginosa [15]): Dose-dependent effect
- IC50 (Pseudomonas aeruginosa [15]): > 87.5 µg/mL
- Activity (Staphylococcus aureus [16]): -15.4%
- Activity (Staphylococcus aureus [17]): -5.8%
- Activity (Streptococcus mutans [18]): 1.7%
- Activity (Streptococcus mutans [19]): 6.2%
- Activity (Streptococcus mutans [20]): -36.3%
- Activity (Pseudomonas aeruginosa [21]): -7.8%
- Activity (Streptococcus mutans [22]): -18.7%
- Activity (Pseudomonas aeruginosa [23]): -18.4%
- Activity (Pseudomonas aeruginosa [24]): -17.2%
- Activity (Streptococcus mutans [25]): -29.9%
- Activity [26]: 16.4%
- Activity [27]: 1.9%
- Activity (Streptococcus mutans [28]): -23.9%
- Activity (Streptococcus mutans [29]): 0.7%
- Activity [30]: 1.4%
- Activity (Streptococcus mutans [31]): -26.9%
- Activity (Streptococcus mutans [32]): 12.4%
- Activity (Pseudomonas aeruginosa [33]): -12.2%
- Activity [34]: 0.1%
- Activity (Pseudomonas aeruginosa [35]): 4.7%
- Activity [36]: 13.8%
- Activity (Staphylococcus aureus [37]): -5.6%
- Activity (Staphylococcus aureus [38]): 2.5%
- Activity [39]: 10.7%
- Activity [40]: 3.5%
- Activity (Pseudomonas aeruginosa [41]): -6.5%
- Activity (Staphylococcus aureus [42]): -17%
- Activity (Staphylococcus aureus [43]): 0.5%

Structure (SMILES): COc1ccc(Cl)cc1C1=C(Br)C(=O)N(CC(C)C)C1(O)Cc1ccccc1Br (stereo not given)
- Activity (Staphylococcus aureus [1]): -9%
- Activity (Staphylococcus aureus [2]): 6.2%
- Activity (Pseudomonas aeruginosa [3]): -14.9%
- Activity (Pseudomonas aeruginosa [4]): -9.6%
- Activity (Pseudomonas aeruginosa [5]): 24.8%
- Activity (Staphylococcus aureus [6]): 4.2%
- Activity (Streptococcus mutans [7]): -7.7%
- Activity [8]: 9.4%
- Activity [9]: 28.8%
- Activity [10]: 17.6%
- Activity (Pseudomonas aeruginosa [11]): -5.6%
- Activity (Staphylococcus aureus [12]): 8.4%
- inhibition [13]: Dose-dependent effect
- IC50 ([13]; ATCC 35547, 20 h): 83.4 µg/mL (≈ 153 µM)
- inhibition (Pseudomonas aeruginosa [15]): Dose-dependent effect
- IC50 (Pseudomonas aeruginosa [15]): > 87.5 µg/mL
- Activity (Staphylococcus aureus [16]): 14.3%
- Activity (Staphylococcus aureus [17]): -2.4%
- Activity (Streptococcus mutans [18]): 1.6%
- Activity (Streptococcus mutans [19]): -13.8%
- Activity (Streptococcus mutans [20]): 24.4%
- Activity (Pseudomonas aeruginosa [21]): 5.7%
- Activity (Streptococcus mutans [22]): 9%
- Activity (Pseudomonas aeruginosa [23]): -13.8%
- Activity (Pseudomonas aeruginosa [24]): -13.5%
- Activity (Streptococcus mutans [25]): 24.4%
- inhibition at 44 µg/mL (Staphylococcus aureus [44]): 53.1%
- Activity [26]: 4.2%
- Activity [27]: 2.6%
- Activity (Streptococcus mutans [28]): 9%
- Activity (Streptococcus mutans [29]): -16.1%
- Activity [30]: 9.4%
- Activity (Streptococcus mutans [31]): 15.4%
- Activity (Streptococcus mutans [32]): 3.5%
- Activity (Pseudomonas aeruginosa [33]): -9.2%
- Activity [34]: 7.8%
- IC50 (Staphylococcus aureus [45]): 6.8 µM
- Activity (Pseudomonas aeruginosa [35]): -7.2%
- Activity [36]: 13.2%
- Activity (Staphylococcus aureus [37]): 3.7%
- Activity (Staphylococcus aureus [38]): 5.9%
- Activity [39]: 6.4%
- Activity [40]: 21.5%
- Activity (Pseudomonas aeruginosa [41]): -6.4%
- Activity (Staphylococcus aureus [42]): 12.8%
- Activity (Staphylococcus aureus [43]): -1.3%
